Results: article PMC5218480 (PLoS ONE, 2017)

Test system: MV-4-11 cells
Assay: Gene expression microarray analysis (Affymetrix PrimeView) and GSEA
Type: cell-based, human
Set-up: RFU PODN (11730768_x_at) / Fold change /veh PODN (11730768_x_at) / RFU LINC00158 (11744669_a_at) / Fold change /veh LINC00158 (11744669_a_at) / RFU DUSP10 (11751237_a_at) / Fold change /veh DUSP10 (11751237_a_at) / RFU ID3 (11757404_x_at) / Fold change /veh ID3 (11757404_x_at) / RFU PLEKHG5 (11737974_s_at) / Fold change /veh PLEKHG5 (11737974_s_at) / RFU LRRC4B (11730491_at) / Fold change /veh LRRC4B (11730491_at) / RFU GIMAP4 (11747438_a_at) / Fold change /veh GIMAP4 (11747438_a_at) / RFU KRT8 (11758183_x_at) / Fold change /veh KRT8 (11758183_x_at) / RFU CNN1 (11734310_a_at) / Fold change /veh CNN1 (11734310_a_at) / RFU VPS37D (11726825_at) / Fold change /veh VPS37D (11726825_at) / RFU C10orf10 (11716522_x_at) / Fold change /veh C10orf10 (11716522_x_at) / RFU KIR2DL2 /// KIR2DL4 /// KIR2DL5A /// KIR2DL5B /// KIR2DS1 /// KIR2DS2 /// KIR2DS3 /// KIR2DS4 /// KIR3DL3 /// KIR3DL3 /// KIR3DS1 (11738374_at) / Fold change /veh KIR2DL2 /// KIR2DL4 /// KIR2DL5A /// KIR2DL5B /// KIR2DS1 /// KIR2DS2 /// KIR2DS3 /// KIR2DS4 /// KIR3DL3 /// KIR3DL3 /// KIR3DS1 (11738374_at) / RFU C1QL1 (11718748_at) / Fold change /veh C1QL1 (11718748_at) / RFU TMPRSS4 (11747572_a_at) / Fold change /veh TMPRSS4 (11747572_a_at) / RFU HAMP (11756126_x_at) / Fold change /veh HAMP (11756126_x_at) / RFU RNFT2 (11725882_a_at) / Fold change /veh RNFT2 (11725882_a_at) / RFU NR4A2 (11747474_a_at) / Fold change /veh NR4A2 (11747474_a_at) / RFU ABCC12 (11746883_a_at) / Fold change /veh ABCC12 (11746883_a_at) / RFU TMEM136 (11760407_x_at) / Fold change /veh TMEM136 (11760407_x_at) / RFU CLDN22 /// WWC2 (11732394_at) / Fold change /veh CLDN22 /// WWC2 (11732394_at) / RFU HLA-DPB1 (11760878_x_at) / Fold change /veh HLA-DPB1 (11760878_x_at) / RFU SPINT1 (11716480_a_at) / Fold change /veh SPINT1 (11716480_a_at) / RFU GAP43 (11754022_s_at) / Fold change /veh GAP43 (11754022_s_at) / RFU A4GNT (11735810_at) / Fold change /veh A4GNT (11735810_at) / RFU PRB3 (11715151_x_at) / Fold change /veh PRB3 (11715151_x_at) / RFU TUBB4B (11761932_at) / Fold change /veh TUBB4B (11761932_at) / RFU CAPN14 (11732068_a_at) / Fold change /veh CAPN14 (11732068_a_at) / RFU TMCC2 (11721928_a_at) / Fold change /veh TMCC2 (11721928_a_at) / RFU IRGQ (11745062_a_at) / Fold change /veh IRGQ (11745062_a_at) / RFU FAM174B (11720279_a_at) / Fold change /veh FAM174B (11720279_a_at) / RFU TMPRSS4 (11748680_a_at) / Fold change /veh TMPRSS4 (11748680_a_at) / RFU FAM212B (11763350_a_at) / Fold change /veh FAM212B (11763350_a_at) / RFU PLEKHG5 (11743358_a_at) / Fold change /veh PLEKHG5 (11743358_a_at) / RFU ZSCAN30 (11745921_a_at) / Fold change /veh ZSCAN30 (11745921_a_at) / RFU CMKLR1 (11741424_a_at) / Fold change /veh CMKLR1 (11741424_a_at) / RFU LOC101060620 /// MAPK8IP1 (11723275_at) / Fold change /veh LOC101060620 /// MAPK8IP1 (11723275_at) / RFU SPTSSB (11747773_x_at) / Fold change /veh SPTSSB (11747773_x_at) / RFU PRSS12 (11739890_at) / Fold change /veh PRSS12 (11739890_at) / RFU BIN1 (11741810_x_at) / Fold change /veh BIN1 (11741810_x_at) / RFU WNT11 (11732464_a_at) / Fold change /veh WNT11 (11732464_a_at) / RFU C10orf10 (11716521_a_at) / Fold change /veh C10orf10 (11716521_a_at) / RFU C5orf56 (11738089_at) / Fold change /veh C5orf56 (11738089_at) / RFU CYB561 (11721691_x_at) / Fold change /veh CYB561 (11721691_x_at) / RFU ANKRD19P (11752326_a_at) / Fold change /veh ANKRD19P (11752326_a_at) / RFU OR2T12 /// OR2T33 /// OR2T8 (11738714_s_at) / Fold change /veh OR2T12 /// OR2T33 /// OR2T8 (11738714_s_at) / RFU VCAN (11748164_a_at) / Fold change /veh VCAN (11748164_a_at) / RFU JSRP1 (11732532_at) / Fold change /veh JSRP1 (11732532_at) / RFU KRTAP10-11 (11738290_x_at) / Fold change /veh KRTAP10-11 (11738290_x_at) / RFU MYO3A (11730013_a_at) / Fold change /veh MYO3A (11730013_a_at) / RFU EBF3 (11725865_a_at) / Fold change /veh EBF3 (11725865_a_at) / RFU CAMK2N1 (11719241_x_at) / Fold change /veh CAMK2N1 (11719241_x_at) / RFU C5orf56 (11738088_a_at) / Fold change /veh C5orf56 (11738088_a_at) / RFU OLFML3 (11715873_a_at) / Fold change /veh OLFML3 (11715873_a_at) / RFU LOC100653217 /// NTM (11731650_a_at) / Fold change /veh LOC100653217 /// NTM (11731650_a_at) / RFU MAPK11 (11762145_a_at) / Fold change /veh MAPK11 (11762145_a_at) / RFU FIZ1 (11724087_x_at) / Fold change /veh FIZ1 (11724087_x_at) / RFU OASL (11726364_x_at) / Fold change /veh OASL (11726364_x_at) / RFU SOX15 (11748057_x_at) / Fold change /veh SOX15 (11748057_x_at) / RFU CD79A (11719716_a_at) / Fold change /veh CD79A (11719716_a_at) / RFU HIST1H1D (11736915_at) / Fold change /veh HIST1H1D (11736915_at) / RFU CASKIN2 (11723855_a_at) / Fold change /veh CASKIN2 (11723855_a_at) / RFU LOC730098 (11760151_x_at) / Fold change /veh LOC730098 (11760151_x_at) / RFU OR4N2 (11742367_at) / Fold change /veh OR4N2 (11742367_at) / RFU PRRT2 (11749266_a_at) / Fold change /veh PRRT2 (11749266_a_at) / RFU SNX32 (11753110_a_at) / Fold change /veh SNX32 (11753110_a_at) / RFU CDHR5 (11726645_a_at) / Fold change /veh CDHR5 (11726645_a_at) / RFU RCAN1 (11760418_a_at) / Fold change /veh RCAN1 (11760418_a_at) / RFU FAM167A (11723789_a_at) / Fold change /veh FAM167A (11723789_a_at) / RFU FAM26E (11764081_at) / Fold change /veh FAM26E (11764081_at) / RFU ISYNA1 (11749810_s_at) / Fold change /veh ISYNA1 (11749810_s_at) / RFU ACY1 (11761880_at) / Fold change /veh ACY1 (11761880_at) / RFU 11764098_at / Fold change /veh 11764098_at / RFU SAMD14 (11745864_x_at) / Fold change /veh SAMD14 (11745864_x_at) / RFU NPB (11741838_a_at) / Fold change /veh NPB (11741838_a_at) / RFU TMPRSS6 (11731388_a_at) / Fold change /veh TMPRSS6 (11731388_a_at) / RFU KRTAP10-2 (11738614_at) / Fold change /veh KRTAP10-2 (11738614_at) / RFU ARHGAP8 /// PRR5-ARHGAP8 (11727945_x_at) / Fold change /veh ARHGAP8 /// PRR5-ARHGAP8 (11727945_x_at) / RFU KRTAP5-7 /// NADSYN1 (11734609_at) / Fold change /veh KRTAP5-7 /// NADSYN1 (11734609_at) / RFU RASL12 (11751679_a_at) / Fold change /veh RASL12 (11751679_a_at) / RFU CDKN2B (11736163_a_at) / Fold change /veh CDKN2B (11736163_a_at) / RFU PRF1 (11729649_at) / Fold change /veh PRF1 (11729649_at) / RFU, ZNF638 /// ZNF638-IT1 / Fold change vs veh, ZNF638 /// ZNF638-IT1 / RFU, PANK3 / Fold change vs veh, PANK3 / RFU, SH3YL1 / Fold change vs veh, SH3YL1 / RFU, ZEB2 / Fold change vs veh, ZEB2 / RFU, NRIP1 / Fold change vs veh, NRIP1 / RFU, PTTG1IP / Fold change vs veh, PTTG1IP / RFU, CAPN2 / Fold change vs veh, CAPN2 / RFU, MED14 / Fold change vs veh, MED14 / RFU, SNORA58 / Fold change vs veh, SNORA58 / RFU, C1orf63 / Fold change vs veh, C1orf63 / RFU, LRRFIP1 / Fold change vs veh, LRRFIP1 / RFU, NDUFAF7 / Fold change vs veh, NDUFAF7 / RFU, SLC12A2 / Fold change vs veh, SLC12A2 / RFU, IBTK / Fold change vs veh, IBTK / RFU, ESF1 / Fold change vs veh, ESF1 / Fold change vs veh, TMEM50B / RFU, TAOK1 / Fold change vs veh, TAOK1 / RFU, ACBD3 / Fold change vs veh, ACBD3 / RFU, TMA16 / Fold change vs veh, TMA16 / RFU, RWDD3 / Fold change vs veh, RWDD3 / RFU, BCAT1 / Fold change vs veh, BCAT1 / RFU, EDEM3 / Fold change vs veh, EDEM3 / RFU, TMEM33 / Fold change vs veh, TMEM33 / RFU, WDR75 / Fold change vs veh, WDR75 / RFU, AHCTF1 / Fold change vs veh, AHCTF1 / RFU, TFRC / Fold change vs veh, TFRC / RFU, ZDHHC17 / Fold change vs veh, ZDHHC17 / RFU, NOM1 / Fold change vs veh, NOM1 / RFU, ARL8B / Fold change vs veh, ARL8B / RFU, ZBTB11 / Fold change vs veh, ZBTB11 / RFU, TAMM41 / Fold change vs veh, TAMM41 / RFU, KIAA1704 /// LOC100996395 / Fold change vs veh, KIAA1704 /// LOC100996395 / RFU, ING1 / Fold change vs veh, ING1 / RFU, TRMT61B / Fold change vs veh, TRMT61B / RFU, FUBP3 / Fold change vs veh, FUBP3 / RFU, TP53 / Fold change vs veh, TP53 / RFU, TNKS2 / Fold change vs veh, TNKS2 / RFU, ZFP14 / Fold change vs veh, ZFP14 / RFU, ACTR2 / Fold change vs veh, ACTR2 / RFU, PPP3R1 / Fold change vs veh, PPP3R1 / RFU, PIK3R1 / Fold change vs veh, PIK3R1 / RFU, HNRNPA1 / Fold change vs veh, HNRNPA1 / RFU, RNF170 / Fold change vs veh, RNF170 / RFU, ZNF28 / Fold change vs veh, ZNF28 / RFU, RNGTT / Fold change vs veh, RNGTT / RFU, OGT / Fold change vs veh, OGT / RFU, BRD1 / Fold change vs veh, BRD1 / RFU, MARS / Fold change vs veh, MARS / RFU, ZNF655 / Fold change vs veh, ZNF655 / RFU, FAHD1 / Fold change vs veh, FAHD1 / RFU, BDP1 / Fold change vs veh, BDP1 / RFU, LRRCC1 / Fold change vs veh, LRRCC1 / RFU, ARID1A / Fold change vs veh, ARID1A / RFU, ZNF146 / Fold change vs veh, ZNF146 / RFU, ZNF330 / Fold change vs veh, ZNF330 / RFU, GPN3 / Fold change vs veh, GPN3 / RFU, C9orf123 / Fold change vs veh, C9orf123 / RFU, N4BP2L2 / Fold change vs veh, N4BP2L2 / RFU, ARFIP1 / Fold change vs veh, ARFIP1 / RFU, FAM179B / Fold change vs veh, FAM179B / RFU, BCL10 / Fold change vs veh, BCL10 / RFU, UHRF1BP1L / Fold change vs veh, UHRF1BP1L / RFU, BET1 / Fold change vs veh, BET1 / RFU, CNOT2 / Fold change vs veh, CNOT2 / RFU, ZNF268 / Fold change vs veh, ZNF268 / Fold change vs veh, ZNF507 / RFU, DGCR2 / Fold change vs veh, DGCR2 / RFU, WDSUB1 / Fold change vs veh, WDSUB1 / Fold change vs veh, HSP90B1 /// MIR3652 / RFU, ADSS / Fold change vs veh, ADSS / RFU, GK / Fold change vs veh, GK / RFU, ZNF148 / Fold change vs veh, ZNF148 / RFU, TAF9 / Fold change vs veh, TAF9 / RFU, SLC1A5 / Fold change vs veh, SLC1A5 / RFU, SLMO2 / Fold change vs veh, SLMO2 / RFU, ABCC4 / Fold change vs veh, ABCC4 / RFU, LOC101060439 /// RAP1B / Fold change vs veh, LOC101060439 /// RAP1B / RFU, RFX7 / Fold change vs veh, RFX7 / RFU, GTPBP10 / Fold change vs veh, GTPBP10 / RFU, CNEP1R1 / Fold change vs veh, CNEP1R1 / RFU, BIVM-ERCC5 /// ERCC5 / Fold change vs veh, BIVM-ERCC5 /// ERCC5 / RFU, ILF3 / Fold change vs veh, ILF3 / RFU 11762660_at / Fold change /veh 11762660_at / RFU VCAN (11757783_s_at) / Fold change /veh VCAN (11757783_s_at) / RFU DDX43 (11728927_at) / Fold change /veh DDX43 (11728927_at) / RFU KRT8 (11758188_x_at) / Fold change /veh KRT8 (11758188_x_at) / RFU NKD1 (11759106_at) / Fold change /veh NKD1 (11759106_at) / RFU SRD5A1 (11742802_a_at) / Fold change /veh SRD5A1 (11742802_a_at) / RFU TPSAB1 /// TPSB2 (11721975_s_at) / Fold change /veh TPSAB1 /// TPSB2 (11721975_s_at) / RFU GSTM3 (11746129_a_at) / Fold change /veh GSTM3 (11746129_a_at) / RFU IL23R (11737362_x_at) / Fold change /veh IL23R (11737362_x_at) / RFU TMEM51 (11727254_a_at) / Fold change /veh TMEM51 (11727254_a_at) / RFU PIWIL2 (11732686_x_at) / Fold change /veh PIWIL2 (11732686_x_at) / RFU ORM1 (11744905_x_at) / Fold change /veh ORM1 (11744905_x_at) / RFU CCDC152 (11743942_at) / Fold change /veh CCDC152 (11743942_at) / RFU ECM1 (11717891_a_at) / Fold change /veh ECM1 (11717891_a_at) / RFU IL23R (11748794_a_at) / Fold change /veh IL23R (11748794_a_at) / RFU TNFAIP8L3 (11732012_x_at) / Fold change /veh TNFAIP8L3 (11732012_x_at) / RFU MBOAT4 (11741988_at) / Fold change /veh MBOAT4 (11741988_at) / RFU 11764193_at / Fold change /veh 11764193_at / RFU TMEM53 (11763286_at) / Fold change /veh TMEM53 (11763286_at) / RFU MAGEB2 (11727129_at) / Fold change /veh MAGEB2 (11727129_at) / RFU TMEM200A (11744735_a_at) / Fold change /veh TMEM200A (11744735_a_at) / RFU CCDC152 (11751479_a_at) / Fold change /veh CCDC152 (11751479_a_at) / RFU FAM211A (11726209_a_at) / Fold change /veh FAM211A (11726209_a_at) / RFU RGS16 (11746705_a_at) / Fold change /veh RGS16 (11746705_a_at) / RFU VCAN (11755009_s_at) / Fold change /veh VCAN (11755009_s_at) / RFU RHOB (11743442_s_at) / Fold change /veh RHOB (11743442_s_at) / RFU RGS16 (11720943_a_at) / Fold change /veh RGS16 (11720943_a_at) / RFU RGS16 (11720944_at) / Fold change /veh RGS16 (11720944_at) / RFU, VPS4B / Fold change vs veh, VPS4B / RFU, CREB1 / Fold change vs veh, CREB1 / RFU, DNAJC13 / Fold change vs veh, DNAJC13 / RFU, GNAQ / Fold change vs veh, GNAQ / RFU, CDK5R1 / Fold change vs veh, CDK5R1 / RFU, ZRANB3 / Fold change vs veh, ZRANB3 / RFU, CUL4A / Fold change vs veh, CUL4A / RFU, CCNY / Fold change vs veh, CCNY / RFU, UFL1 / Fold change vs veh, UFL1 / RFU, COG3 / Fold change vs veh, COG3 / RFU, DIAPH2 / Fold change vs veh, DIAPH2 / RFU, SKA2 / Fold change vs veh, SKA2 / RFU, AFF3 / Fold change vs veh, AFF3 / RFU, LMF1 / Fold change vs veh, LMF1 / RFU, IPO11 / Fold change vs veh, IPO11 / RFU, DFFB / Fold change vs veh, DFFB / RFU, FOXP1 / Fold change vs veh, FOXP1 / RFU, CARD8 / Fold change vs veh, CARD8 / RFU, STRN3 / Fold change vs veh, STRN3 / RFU, ADK / Fold change vs veh, ADK / RFU, RASSF2 / Fold change vs veh, RASSF2 / RFU, WIPF1 / Fold change vs veh, WIPF1 / RFU, LARP1B / Fold change vs veh, LARP1B / RFU, RASA1 / Fold change vs veh, RASA1 / RFU, RB1 / Fold change vs veh, RB1 / RFU, PPFIA1 / Fold change vs veh, PPFIA1 / RFU, MAT2A / Fold change vs veh, MAT2A / RFU, CCT5 / Fold change vs veh, CCT5 / RFU, WDR92 / Fold change vs veh, WDR92 / RFU, CUX1 / Fold change vs veh, CUX1 / RFU, TTC7A / Fold change vs veh, TTC7A / RFU, TMEM135 / Fold change vs veh, TMEM135 / RFU, DEPTOR / Fold change vs veh, DEPTOR / RFU, CPM / Fold change vs veh, CPM / RFU, DNAJB6 / Fold change vs veh, DNAJB6 / RFU, CACNA2D3 / Fold change vs veh, CACNA2D3 / RFU, DTX4 / Fold change vs veh, DTX4 / RFU, TFCP2 / Fold change vs veh, TFCP2 / RFU, GMCL1 /// GMCL1P1 / Fold change vs veh, GMCL1 /// GMCL1P1 / RFU, AEBP2 / Fold change vs veh, AEBP2 / RFU, SNHG1 /// SNORD22 /// SNORD25 /// SNORD26 /// SNORD27 /// SNORD28 /// SNORD29 /// SNORD31 / Fold change vs veh, SNHG1 /// SNORD22 /// SNORD25 /// SNORD26 /// SNORD27 /// SNORD28 /// SNORD29 /// SNORD31 / Fold change (Aza/veh), C12orf56 (ProbeSet 11735607_a_at) / Fold change (ACY-1035/veh), C12orf56 (ProbeSet 11735607_a_at) / Fold change (Aza/veh), FGFR1OP (ProbeSet 11751329_s_at) / Fold change (ACY-1035/veh), FGFR1OP (ProbeSet 11751329_s_at) / Fold change (Aza/veh), VPS36 (ProbeSet 11739960_a_at) / Fold change (ACY-1035/veh), VPS36 (ProbeSet 11739960_a_at) / RFU SYPL1 (11715823_x_at) / Fold change /veh SYPL1 (11715823_x_at) / RFU IGFBP7 (11715501_s_at) / Fold change /veh IGFBP7 (11715501_s_at) / RFU REEP3 (11722064_at) / Fold change /veh REEP3 (11722064_at) / RFU IGLL1 (11728026_x_at) / Fold change /veh IGLL1 (11728026_x_at): dose or concentration left out as unconfirmed
Conditions: MV-4-11 cells, 48 hours

## Nc1ccc(-c2cccs2)cc1NC(=O)c1ccc2c(c1)cc(C1CC1)n2CCN1CCOCC1 [ACY-1035]
  Fold change /veh IGFBP7 (11715501_s_at): 0.33
